One test deals with Ramos cells with BTK WT. The test can be described thus: Phosphor-BTK(Y223) assay, suspended cells. It is filed as cell-based. To be noted: Homo sapiens, Ramos, phosphorylated BTK Y223, Ramos cells with BTK WT. The method, boiled down:
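Ramos BTK WT cells (2.5 k/well) were treated with compound dilutions for 2 h at 37 °C, then 5 mM Na3VO4 for 3 h. Lysates were read by HTRF p-BTK(Y223) cryptate/d2 antibodies overnight at RT (665/620 ratio). IC50 came from a four-parameter fit of % inhibition versus blank and positive-control wells.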

For the next test, the target named is T1, BTK kinase (Homo sapiens, UniProt Q06187).
T1 construct: purchased Invitrogen PV3587
The experiment in a line: Kinase activity inhibition assay (HTRF TK Kit). It is filed as biochemical. From the text: (§1) In this assay, the HTRF TK Kit (Catalog No. 62TK0PEC) provided by Cisbio was used to detect the inhibitory activity of compounds on BTK kinase, BTK T474I kinase and BTK C481 S kinase and the selectivity of compounds relative to EGFR, ITK and TEC kinases.
(§2) Reagents and consumables: BTK kinase (Invitrogen, Catalog No. PV3587), BTK C481S (Carna, Product No. 08-547), BTK T474I(SignalChem Product No. B10-12HH), ITK (Cama, Product No. 08-181), EGFR (Cama, Product No. 08-115), TEC (Carna, Product No. 08-182), HTRF-TK kit (Cisbio, Product No. 62TK0PEC), MgCl2 (Sigma, Product No. M1028), MnCl2 (Sigma, Product No. M1787), DTT (Sigma, Product No. D0632), ATP (Sigma, Product No. A7699-1g), DMSO (Sigma, Product No. D2650), 384-well plate (PE, Product No. 6008280).
(§3) The entire operation steps were carried out on ice, and the total reaction volume was 10µL. A compound (4µL), substrate and ATP (4µL), and kinase (2µL) were added in sequence to a 384-well plate, and the plate was shaken for 30 seconds. The mixture was reacted at room temperature for an appropriate time, and then the detection reagent was added. The resulting mixture was reacted at room temperature for 1 hour, and then the plate was assayed with a microplate reader. The specific steps were as follows: • a) a 1 × kinase buffer solution required for the kinase assay was calculated according to the amount of the test compound, and prepared as needed; • b) 2.5 × working concentration of a compound was prepared, 100-fold gradient concentration solutions of a compound were diluted by 40 × to the desired concentration, respectively, mixed well, and added to each well at 4 µL per well; • c) 5 × working concentration of the substrate and ATP were prepared, mixed in a ratio of 1:1 before being added to the 384-well plate, and added to each well at 4 µL per well; • d) 5 × working concentration of a kinase was prepared, 2 µL of which was added to each well; • e) the plate was shaken on a microplate shaker for 30 seconds, sealed with a sealing membrane, and the mixture was reacted at room temperature for an appropriate time; • f) 4 × working concentration of streptavidin XL-665 and TK antibody-cryptate compound were prepared, mixed in a ratio of 1:1 before being added to the 384-well plate, and added to each well at 10 µL per well; • g) the mixture was reacted at room temperature for 1 hour, and then the plate was read; • h) the wells with only substrate, ATP and 1% DMSO added but no kinase were blank control wells, and the wells with only substrate, ATP, 1% DMSO and kinase were positive control wells.
(§4) Readings: The values of 620 nm (cryptate) and 665 nm (XL665) were read with a BioTek Synerg Neo2 microplate reader, the ratio of 665/620 for each well was calculated, and the data were exported.
(§5) Data analysis: IC50 was calculated using GraphPad Prism 7.0 software.
(§6) The IC50 (half-maximal inhibitory concentration) of the compound was obtained using the following nonlinear fitting formula: Y = Bottom + (Top−Bottom)/(1+10^(∧)((LogIC50−X)*HillSlope)) [formula] • X: Log value of the compound concentration • Y: Inhibition rate (% inhibition) • Top: Maximum response • Bottom: Baseline response • HillSlope: Slope of the curve
(§7) The formula for calculating kinase inhibition rate (inhibition rate %) was: [formula]
A general note: Time-resolved FRET reads energy transfer from a long-lived donor to a nearby acceptor.

The target in a further test is T2, BTK T474I (Homo sapiens, UniProt Q06187, T474I).
T2 construct: purchased SignalChem B10-12HH
The test can be described thus: Kinase activity inhibition assay (HTRF TK Kit). It is filed as biochemical.
Description: as §1, §2, §3, §4, §5, §6, §7

A further test addresses T3, BTK C481S (Homo sapiens, UniProt Q06187, C481S).
T3 construct: purchased Carna 08-547
The test can be described thus: Kinase activity inhibition assay (HTRF TK Kit). It is filed as biochemical.
Description: as §1, §2, §3, §4, §5, §6, §7

The text below walks through data of patent publication EP4741392A1, “1H-PYRAZOLO[4,3-C]PYRIDINE COMPOUND, AND COMPOSITION THEREOF AND USE THEREOF” (Shenzhen TargetRx Co., Ltd., priority 2023, dated 2025).

In general, IC50 refers to the point on the concentration scale where inhibition reaches its midpoint.

T1 sequence (Q06187 whole entry): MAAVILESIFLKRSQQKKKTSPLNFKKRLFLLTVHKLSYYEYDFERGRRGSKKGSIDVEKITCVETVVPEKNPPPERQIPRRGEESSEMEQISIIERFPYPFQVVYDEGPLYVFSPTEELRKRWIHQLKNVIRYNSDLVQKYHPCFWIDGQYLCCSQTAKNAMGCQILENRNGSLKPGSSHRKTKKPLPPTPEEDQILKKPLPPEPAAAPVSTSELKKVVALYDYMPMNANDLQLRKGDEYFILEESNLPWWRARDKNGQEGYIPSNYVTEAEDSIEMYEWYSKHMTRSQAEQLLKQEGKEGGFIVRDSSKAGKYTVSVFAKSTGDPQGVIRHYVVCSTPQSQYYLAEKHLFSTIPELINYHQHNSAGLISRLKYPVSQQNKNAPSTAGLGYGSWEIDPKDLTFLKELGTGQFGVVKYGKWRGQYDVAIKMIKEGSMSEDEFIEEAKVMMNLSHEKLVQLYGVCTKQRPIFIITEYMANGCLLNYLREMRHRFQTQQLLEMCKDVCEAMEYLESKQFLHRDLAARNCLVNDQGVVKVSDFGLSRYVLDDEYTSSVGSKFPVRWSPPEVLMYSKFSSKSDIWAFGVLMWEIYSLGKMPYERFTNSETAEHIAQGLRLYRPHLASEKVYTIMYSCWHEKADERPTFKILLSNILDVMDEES
T3 sequence (Q06187 whole entry C481S): as the sequence (Q06187 whole entry) above, with C481S counted along it
T2 sequence (Q06187 whole entry T474I): as the sequence (Q06187 whole entry) above, with T474I counted along it

`COc1ccc(F)cc1C(=O)NCc1ccc(-c2ncc(-c3ccn(C)n3)c3[nH]nc(N)c23)cc1` [Example 23, N-(4-(3-amino-7-(1-methyl-1H-pyrazol-3-yl)-1H-pyrazolo[4,3-c]pyridin-4-yl)benzyl)-5-fluoro-2-methoxybenzamide]: the IC50 in the test on Ramos cells with BTK WT was no more than 5 nM; on BTK kinase, no more than 1 nM; at BTK T474I, 50 to 500 nM; on BTK C481S, no more than 1 nM.
Take `COc1ccc(F)cc1C(=O)NCc1ccc(-c2ncc(-c3ccc(C(F)(F)F)cn3)c3[nH]nc(N)c23)cc1` [Example 24, N-(4-(3-amino-7-(5-(trifluoromethyl)pyridin-2-yl)-1H-pyrazolo[4,3-c]pyridin-4-yl)benzyl)-5-fluoro-2-methoxybenzamide]: the IC50 in the test on Ramos cells with BTK WT is no more than 5 nM; at BTK kinase, 5 to 50 nM; on BTK T474I it was 50 to 500 nM; on BTK C481S, 5 to 50 nM.
Take `COc1ccc(F)cc1C(=O)NCc1ccc(-c2ncc(-c3ccn(CC(=O)N(C)C)n3)c3[nH]nc(N)c23)cc1` [Example 25, N-(4-(3-amino-7-(1-(2-(dimethylamino)-2-oxoethyl)-1H-pyrazol-3-yl)-1H-pyrazolo[4,3-c]pyridin-4-yl)benzyl)-5-fluoro-2-methoxybenzamide]: the IC50 with Ramos cells with BTK WT fell in the range of 5 to 10 nM; on BTK kinase, 1 to 5 nM; on BTK T474I, 50 to 500 nM; on BTK C481S it was 1 to 5 nM.
For `CNC(=O)Cn1ccc(-c2cnc(-c3ccc(CNC(=O)c4cc(F)ccc4OC)cc3)c3c(N)n[nH]c23)n1` [Example 26, N-(4-(3-amino-7-(1-(2-(methylamino)-2-oxoethyl)-1H-pyrazol-3-yl)-1H-pyrazolo[4,3-c]pyridin-4-yl)benzyl)-5-fluoro-2-methoxybenzamide], the IC50 in the test with Ramos cells with BTK WT was no more than 5 nM; on BTK kinase, 1 to 5 nM; on BTK T474I, 50 to 500 nM; at BTK C481S, 1 to 5 nM.
Take `COc1ccc(F)cc1C(=O)NCc1ccc(-c2ncc(-c3ccn(CC(F)(F)F)n3)c3[nH]nc(N)c23)cc1` [Example 28, N-(4-(3-amino-7-(1-(2,2,2-trifluoroethyl)-1H-pyrazol-3-yl)-1H-pyrazolo[4,3-c]pyridin-4-yl)benzyl)-5-fluoro-2-methoxybenzamide]: the IC50 in the test with Ramos cells with BTK WT lay in the range of 10 to 50 nM; at BTK kinase, 1 to 5 nM; on BTK T474I it was 50 to 500 nM; on BTK C481S, 1 to 5 nM.
With `COc1ccc(F)cc1C(=O)NCc1ccc(-c2ncc(-c3cn(C)cn3)c3[nH]nc(N)c23)cc1` [Example 30, N-(4-(3-amino-7-(1-methyl-1H-imidazol-4-yl)-1H-pyrazolo[4,3-c]pyridin-4-yl)benzyl)-5-fluoro-2-methoxybenzamide], the IC50 in the test on Ramos cells with BTK WT was 10 to 50 nM; on BTK kinase, 1 to 5 nM; at BTK T474I it was 50 to 500 nM; on BTK C481S, 1 to 5 nM.
`COc1ccc(F)cc1C(=O)NCc1ccc(-c2ncc(-c3cc[nH]n3)c3[nH]nc(N)c23)cc1` [Example 31, N-(4-(3-amino-7-(1H-pyrazol-3-yl)-1H-pyrazolo[4,3-c]pyridin-4-yl)benzyl)-5-fluoro-2-methoxybenzamide]: the IC50 in the test with Ramos cells with BTK WT was 10 to 50 nM; at BTK kinase it was 1 to 5 nM; on BTK T474I, 50 to 500 nM; at BTK C481S, 1 to 5 nM.
With `COc1ccc(F)cc1C(=O)NCc1ccc(-c2ncc(-c3ccc(S(C)(=O)=O)cn3)c3[nH]nc(N)c23)cc1` [Example 35, N-(4-(3-amino-7-(5-(methylsulfonyl)pyridin-2-yl)-1H-pyrazolo[4,3-c]pyridin-4-yl)benzyl)-5-fluoro-2-methoxybenzamide], the IC50 is no more than 5 nM with Ramos cells with BTK WT, no more than 1 nM on BTK kinase, 5 to 50 nM at BTK T474I and no more than 1 nM at BTK C481S.
For `COc1ccc(F)cc1C(=O)NCc1ccc(-c2ncc(-c3ncc(F)cn3)c3[nH]nc(N)c23)cc1` [Example 36, N-(4-(3-amino-7-(5-fluoropyrimidin-2-yl)-1H-pyrazolo[4,3-c]pyridin-4-yl)benzyl)-5-fluoro-2-methoxybenzamide], the IC50 was 10 to 50 nM in the test with Ramos cells with BTK WT, 1 to 5 nM on BTK kinase, 50 to 500 nM on BTK T474I and 1 to 5 nM at BTK C481S.
Consider `COc1ccc(F)cc1C(=O)NCc1ccc(-c2ncc(-c3ccc(C)cn3)c3[nH]nc(N)c23)cc1` [Example 37, N-(4-(3-amino-7-(5-methylpyridin-2-yl)-1H-pyrazolo[4,3-c]pyridin-4-yl)benzyl)-5-fluoro-2-methoxybenzamide], for which the IC50 is no more than 5 nM with Ramos cells with BTK WT, no more than 1 nM at BTK kinase, 50 to 500 nM on BTK T474I and no more than 1 nM on BTK C481S.
In the case of `COc1ccc(F)cc1C(=O)NCc1ccc(-c2ncc(-c3ccc(Cl)cn3)c3[nH]nc(N)c23)cc1` [Example 38, N-(4-(3-amino-7-(5-chloropyridin-2-yl)-1H-pyrazolo[4,3-c]pyridin-4-yl)benzyl)-5-fluoro-2-methoxybenzamide], the IC50 in the test on Ramos cells with BTK WT was no more than 5 nM; on BTK kinase, 5 to 50 nM; at BTK T474I, 50 to 500 nM; at BTK C481S it was 1 to 5 nM.
On the same counts, the results for `COc1ccc(F)cc1C(=O)NCc1ccc(-c2ncc(-c3ncc(C)cn3)c3[nH]nc(N)c23)cc1` [Example 39, N-(4-(3-amino-7-(5-methylpyrimidin-2-yl)-1H-pyrazolo[4,3-c]pyridin-4-yl)benzyl)-5-fluoro-2-methoxybenzamide] are no more than 5 nM, no more than 1 nM, 5 to 50 nM and no more than 1 nM.
On the same counts, the results for `COc1ccc(F)cc1C(=O)NCc1ccc(-c2ncc(-c3ccc(OC(F)(F)F)cn3)c3[nH]nc(N)c23)cc1` [Example 41, N-(4-(3-amino-7-(5-(trifluoromethoxy)pyridin-2-yl)-1H-pyrazolo[4,3-c]pyridin-4-yl)benzyl)-5-fluoro-2-methoxybenzamide] are no more than 5 nM, 1 to 5 nM, 5 to 50 nM and no more than 1 nM.
On the same counts, the results for `COc1ccc(F)cc1C(=O)NCc1ccc(-c2ncc(-c3ncc(C(F)(F)F)cn3)c3[nH]nc(N)c23)cc1` [Example 42, N-(4-(3-amino-7-(5-(trifluoromethyl)pyrimidin-2-yl)-1H-pyrazolo[4,3-c]pyridin-4-yl)benzyl)-5-fluoro-2-methoxybenzamide] are 10 to 50 nM, 1 to 5 nM, greater than 500 nM and 1 to 5 nM.
Turning to `COc1ccc(F)cc1C(=O)NCc1ccc(-c2ncc(-c3ccc(C4COC4)cn3)c3[nH]nc(N)c23)cc1` [Example 43, N-(4-(3-amino-7-(5-(oxetan-3-yl)pyridin-2-yl)-1H-pyrazolo[4,3-c]pyridin-4-yl)benzyl)-5-fluoro-2-methoxybenzamide], the IC50 was no more than 5 nM with Ramos cells with BTK WT, no more than 1 nM at BTK kinase, 5 to 50 nM at BTK T474I and no more than 1 nM on BTK C481S.
Take `COc1ccc(F)cc1C(=O)NCc1ccc(-c2ncc(-c3cc4ncccn4n3)c3[nH]nc(N)c23)cc1` [Example 44, N-(4-(3-amino-7-(pyrazolo[1,5-a]pyrimidin-2-yl)-1H-pyrazolo[4,3-c]pyridin-4-yl)benzyl)-5-fluoro-2-methoxybenzamide]: the half-maximal inhibitory concentration (IC50) in the test on Ramos cells with BTK WT was no more than 5 nM; on BTK kinase it was no more than 1 nM; at BTK T474I it was 5 to 50 nM; at BTK C481S it was no more than 1 nM.
